Measurements published in US9050378B2, “N2S2 chelate-targeting ligand conjugates” (Board of Regents, The University of Texas System, priority 2003, dated 2015).
One block for each compound: values may come before it.

Legend:
[1] = system: A549 human lung cancer tumor; assay: Tissue distribution in lung tumor-bearing nude mice; type: in vivo
Procedure: Female athymic nude mice (NCr-nu/nu, NCI, Bethasda, Md.) were inoculated with human lung cancer cells (A549 tumor cell line, 3×10^6 cells/mouse, intramuscular) by one author in the mid-dorsal region. After the tumor reached 6 mm, separate biodistribution studies using ^99mTc-EC-DG and 18F-FDG were conducted. Each received ^99mTc-EC-DG or 18F-FDG intravenously (n=3/time point). The injection activity was 1-3 μCi/mouse. The injected mass of ^99mTc-EC-DG was 0.2 mg/rodent.

[2] = system: RBA CRL-1747 mammary tumor; assay: Biodistribution in breast (mammary) tumor-bearing rats; type: in vivo, rat; conditions: Table 2
Procedure: (§1) Biodistribution was assessed in mammary tumor-bearing rats (RBA CRL-1747, n=3/time interval, iv). Studies were performed 14 to 17 days after implantation when tumors reached approximately 1 cm in diameter. Following administration of the radiotracer, rats were sacrificed at 0.5-4 hrs. The selected tissues were excised, weighed and counted for radioactivity by using a gamma counter (Packard Instruments, Downers Grove, Ill.). The biodistribution of tracer in each sample was calculated as percentage of the injected dose per gram of tissue wet weight (% ID/g).
as §1, with “breast” for “mammary”

[3] = system: RBA CRL-1747; assay: In vitro cellular uptake and blocking of ^99mTc-EC-angiostatin with unlabeled angiostatin; type: cell-based, rat; conditions: unlabeled angiostatin 0-200 μM, RBA CRL-1747, 2 hours; read-out: IC-50 of angiostatin (inhibition of ^99mTc-EC-angiostatin uptake)
Procedure: The IC-50 of angiostatin was 176 μM (R^2=0.998) (FIG. 3).

Compound: OC[C@H]1OC(O)[C@H]([18F])[C@@H](O)[C@@H]1O (stereo partly drawn) [^18FDG, [^18F]fluorodeoxyglucose, reference compound]
Blood ([1]; 30 min): 0.793 ± 0.067 % of injected dose per gram of tissue weight
Brain ([1]; 30 min): 6.557 ± 0.390 % of injected dose per gram of tissue weight
Heart ([1]; 30 min): 11.94 ± 2.571 % of injected dose per gram of tissue weight
Intestine ([1]; 30 min): 2.322 ± 0.542 % of injected dose per gram of tissue weight
Kidney ([1]; 30 min): 1.137 ± 0.117 % of injected dose per gram of tissue weight
Liver ([1]; 30 min): 1.051 ± 0.057 % of injected dose per gram of tissue weight
Lung ([1]; 30 min): 2.490 ± 0.209 % of injected dose per gram of tissue weight
Muscle ([1]; 30 min): 4.876 ± 0.621 % of injected dose per gram of tissue weight
Spleen ([1]; 30 min): 1.824 ± 0.196 % of injected dose per gram of tissue weight
Stomach ([1]; 30 min): 5.046 ± 0.461 % of injected dose per gram of tissue weight
Thyroid ([1]; 30 min): 4.490 ± 0.526 % of injected dose per gram of tissue weight
Tumor ([1]; 30 min): 2.226 ± 0.150 % of injected dose per gram of tissue weight
Tumor/Blood ([1]; 30 min): 2.821 ± 0.144
Tumor/Lung ([1]; 30 min): 0.912 ± 0.119
Tumor/Muscle ([1]; 30 min): 0.463 ± 0.026
Blood ([1]; 2 h): 0.236 ± 0.009 % of injected dose per gram of tissue weight
Brain ([1]; 2 h): 3.113 ± 0.132 % of injected dose per gram of tissue weight
Heart ([1]; 2 h): 20.33 ± 7.675 % of injected dose per gram of tissue weight
Intestine ([1]; 2 h): 2.764 ± 0.496 % of injected dose per gram of tissue weight
Kidney ([1]; 2 h): 0.553 ± 0.104 % of injected dose per gram of tissue weight
Liver ([1]; 2 h): 0.586 ± 0.040 % of injected dose per gram of tissue weight
Lung ([1]; 2 h): 2.222 ± 0.137 % of injected dose per gram of tissue weight
Muscle ([1]; 2 h): 5.409 ± 0.611 % of injected dose per gram of tissue weight
Spleen ([1]; 2 h): 1.903 ± 0.144 % of injected dose per gram of tissue weight
Stomach ([1]; 2 h): 4.374 ± 0.864 % of injected dose per gram of tissue weight
Thyroid ([1]; 2 h): 4.617 ± 0.400 % of injected dose per gram of tissue weight
Tumor ([1]; 2 h): 1.699 ± 0.172 % of injected dose per gram of tissue weight
Tumor/Blood ([1]; 2 h): 7.261 ± 1.007
Tumor/Lung ([1]; 2 h): 0.775 ± 0.113
Tumor/Muscle ([1]; 2 h): 0.319 ± 0.031
Blood ([1]; 4 h): 0.203 ± 0.062 % of injected dose per gram of tissue weight
Brain ([1]; 4 h): 2.065 ± 0.080 % of injected dose per gram of tissue weight
Heart ([1]; 4 h): 19.35 ± 8.286 % of injected dose per gram of tissue weight
Intestine ([1]; 4 h): 1.562 ± 0.342 % of injected dose per gram of tissue weight
Kidney ([1]; 4 h): 0.568 ± 0.027 % of injected dose per gram of tissue weight
Liver ([1]; 4 h): 0.785 ± 0.039 % of injected dose per gram of tissue weight
Lung ([1]; 4 h): 2.280 ± 0.182 % of injected dose per gram of tissue weight
Muscle ([1]; 4 h): 4.743 ± 0.610 % of injected dose per gram of tissue weight
Spleen ([1]; 4 h): 1.591 ± 0.161 % of injected dose per gram of tissue weight
Stomach ([1]; 4 h): 2.278 ± 0.455 % of injected dose per gram of tissue weight
Thyroid ([1]; 4 h): 4.424 ± 0.442 % of injected dose per gram of tissue weight
Tumor ([1]; 4 h): 1.606 ± 0.182 % of injected dose per gram of tissue weight
Tumor/Blood ([1]; 4 h): 8.932 ± 1.973
Tumor/Lung ([1]; 4 h): 0.717 ± 0.106
Tumor/Muscle ([1]; 4 h): 0.346 ± 0.048
tumor-to-tissue ratios, ^99mTc-EC-DG versus 18F-FDG ([1]; A549 nude mice, iv): higher tumor/blood ratios

Blood ([2]; 1 Hour): 0.273 ± 0.039 % ID/g
Intestine ([2]; 1 Hour): 0.787 ± 0.106 % ID/g
Kidney ([2]; 1 Hour): 8.991 ± 0.268 % ID/g
Liver ([2]; 1 Hour): 0.367 ± 0.006 % ID/g
Lung ([2]; 1 Hour): 0.187 ± 0.029 % ID/g
Muscle ([2]; 1 Hour): 0.043 ± 0.002 % ID/g
Stomach ([2]; 1 Hour): 0.127 ± 0.106 % ID/g
Thyroid ([2]; 1 Hour): 0.229 ± 0.118 % ID/g
Tumor ([2]; 1 Hour): 0.149 ± 0.020 % ID/g
Tumor/Blood ([2]; 1 Hour): 0.544 ± 0.004
Tumor/Lung ([2]; 1 Hour): 0.797 ± 0.022
Tumor/Muscle ([2]; 1 Hour): 3.414 ± 0.325
Urine ([2]; 1 Hour): 11.045 ± 6.158 % ID/g
Blood ([2]; 2 Hour): 0.211 ± 0.001 % ID/g
Intestine ([2]; 2 Hour): 0.401 ± 0.093 % ID/g
Kidney ([2]; 2 Hour): 9.116 ± 0.053 % ID/g
Liver ([2]; 2 Hour): 0.286 ± 0.073 % ID/g
Lung ([2]; 2 Hour): 0.144 ± 0.002 % ID/g
Muscle ([2]; 2 Hour): 0.028 ± 0.009 % ID/g
Stomach ([2]; 2 Hour): 0.037 ± 0.027 % ID/g
Thyroid ([2]; 2 Hour): 0.106 ± 0.003 % ID/g
Tumor ([2]; 2 Hour): 0.115 ± 0.002 % ID/g
Tumor/Blood ([2]; 2 Hour): 0.546 ± 0.010
Tumor/Lung ([2]; 2 Hour): 0.797 ± 0.002
Tumor/Muscle ([2]; 2 Hour): 4.425 ± 1.397
Urine ([2]; 2 Hour): 13.192 ± 4.505 % ID/g
Blood ([2]; 4 Hour): 0.149 ± 0.008 % ID/g
Intestine ([2]; 4 Hour): 0.103 ± 0.009 % ID/g
Kidney ([2]; 4 Hour): 7.834 ± 1.018 % ID/g
Liver ([2]; 4 Hour): 0.234 ± 0.016 % ID/g
Lung ([2]; 4 Hour): 0.120 ± 0.012 % ID/g
Muscle ([2]; 4 Hour): 0.019 ± 0.001 % ID/g
Stomach ([2]; 4 Hour): 0.043 ± 0.014 % ID/g
Thyroid ([2]; 4 Hour): 0.082 ± 0.005 % ID/g
Tumor ([2]; 4 Hour): 0.096 ± 0.005 % ID/g
Tumor/Blood ([2]; 4 Hour): 0.649 ± 0.005
Tumor/Lung ([2]; 4 Hour): 0.798 ± 0.007
Tumor/Muscle ([2]; 4 Hour): 5.093 ± 0.223
Urine ([2]; 4 Hour): 8.693 ± 2.981 % ID/g
Blood ([2]; 30 Min.): 0.435 ± 0.29 % ID/g
Intestine ([2]; 30 Min.): 0.173 ± 0.029 % ID/g
Kidney ([2]; 30 Min.): 7.914 ± 0.896 % ID/g
Liver ([2]; 30 Min.): 0.508 ± 0.062 % ID/g
Lung ([2]; 30 Min.): 0.272 ± 0.019 % ID/g
Muscle ([2]; 30 Min.): 0.060 ± 0.006 % ID/g
Stomach ([2]; 30 Min.): 0.136 ± 0.060 % ID/g
Thyroid ([2]; 30 Min.): 0.219 ± 0.036 % ID/g
Tumor ([2]; 30 Min.): 0.342 ± 0.163 % ID/g
Tumor/Blood ([2]; 30 Min.): 0.776 ± 0.322
Tumor/Lung ([2]; 30 Min.): 1.256 ± 0.430
Tumor/Muscle ([2]; 30 Min.): 5.841 ± 3.253
Urine ([2]; 30 Min.): 9.124 ± 0.808 % ID/g
Compound: O=C([O-])[C@H](C[S-])NCCN[C@@H](CS)C(=O)[O-].[O]=[Tc+3] [^99mTc-EC, ^99mTc-L,L-ethylenedicysteine, reference compound]

IC50 [3]: 176 µM
Compound: angiostatin
